The source of these data is US20250034173A1, “PYRIDO[4,3-D]PYRIMIDINE COMPOUNDS” (PFIZER INC., priority 2023, published 2025).

As usually defined, the IC50 is the concentration needed to halve the response being measured. Lower therefore signals greater potency in that assay. For orientation: Kd means the constant that tells how readily two partners part at equilibrium. Higher therefore signals weaker binding.

Assay [1] concerns H358 (non-small cell lung cancer cell line). Briefly: KRAS Cell Titer Glo (CTG) cell proliferation assay, H358. It is filed as cell-based. As to conditions: Homo sapiens, NCI-H358, 168 h; H358 cells, 7-day CTG, geomean IC50. The procedure, abridged: (§1)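 Compounds pre-dispensed in 0.1% DMSO before seeding H358 (300 cells/well), SW620 (750) or PANC08.13 (600); 7-day exposure at 37 °C, 5% CO2. Viability by CellTiter-Glo luminescence after 15 min at room temperature. Percent effect normalised to DMSO (0%) and 1 uM trametinib (100%); geomean IC50.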
Background: ATP-based viability assays read luminescence as a measure of living cells.

For another assay, the target named is KRAS G12C (Homo sapiens (Human), UniProt P01116, G12C). Briefly: SPR binding affinity and kinetics, GTPγS-loaded KRAS G12C. As to conditions: GTPγS loaded protein, geomean. The procedure, abridged: (§2)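 SPR; dissoc ≥3600 s; no extra regeneration; fit quality by c2 + residual randomness.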
On the technique in general: SPR reads the build-up and loss of mass on a sensor chip optically.

Another assay addresses NRAS Wild Type (Homo sapiens (Human), UniProt P01111). Briefly: SPR binding affinity and kinetics, GTPγS-loaded NRAS Wild Type. As to conditions: GTPγS loaded protein, geomean. From the text:
(§3) No additional regeneration was used.
(§4) Compound dissociation was monitored for at least 3600 seconds. […] No additional regeneration was used.
(§5) The adequateness of the fit was judged by c2 values and the randomness of residue distribution.

The target of another assay is HRAS Wild Type (Homo sapiens (Human), UniProt P01112). Briefly: SPR binding affinity and kinetics, GTPγS-loaded HRAS Wild Type. As to conditions: GTPγS loaded protein, geomean.
Description: as §3, §4, §5

Another assay deals with KRAS G12V (Homo sapiens (Human), UniProt P01116, G12V). Briefly: SPR binding affinity and kinetics, GTPγS-loaded KRAS G12V. As to conditions: GTPγS loaded protein, geomean. The procedure, abridged:
as §2

Another assay deals with KRAS G12D (Homo sapiens (Human), UniProt P01116, G12D). The assay can be described thus: SPR binding affinity and kinetics, GTPγS-loaded KRAS G12D. Particulars: GTPγS loaded protein, geomean. The method, boiled down:
as §2

In assay [2] the test system is SW620 (colorectal cancer cell line). The assay can be described thus: KRAS Cell Titer Glo (CTG) cell proliferation assay, SW620. Particulars: Homo sapiens, SW-620, 168 h; SW620 cells, 7-day CTG, geomean IC50. Format: cell-based. The method, boiled down:
as §1

Another assay concerns the target KRAS Wild Type (Homo sapiens (Human), UniProt P01116). The assay can be described thus: SPR binding affinity and kinetics, GTPγS-loaded KRAS Wild Type. As to conditions: GTPγS loaded protein, geomean. The method, boiled down:
as §2

For assay [3], the system named is PANC08.13 (pancreatic cancer cell line). The assay can be described thus: KRAS Cell Titer Glo (CTG) cell proliferation assay, PANC08.13. Format: cell-based. Particulars: Homo sapiens, PANC-08-13, 168 h; PANC08.13 cells, 7-day CTG, geomean IC50. The procedure, abridged:
as §1

The structures appear in SMILES notation.

KRAS G12C, sequence (P01116 other isoform, or with tags, fused parts or gaps G12C): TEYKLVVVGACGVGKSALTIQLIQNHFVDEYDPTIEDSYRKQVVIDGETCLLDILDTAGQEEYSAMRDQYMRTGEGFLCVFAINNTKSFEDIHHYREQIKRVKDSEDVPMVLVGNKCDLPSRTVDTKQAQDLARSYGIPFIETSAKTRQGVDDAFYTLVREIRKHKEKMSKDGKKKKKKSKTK
NRAS Wild Type, sequence (P01111 2-185): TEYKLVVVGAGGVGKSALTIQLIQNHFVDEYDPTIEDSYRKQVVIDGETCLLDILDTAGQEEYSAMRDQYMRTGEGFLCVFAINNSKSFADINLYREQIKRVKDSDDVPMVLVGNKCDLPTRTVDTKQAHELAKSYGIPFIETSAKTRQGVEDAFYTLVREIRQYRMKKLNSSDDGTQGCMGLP
KRAS Wild Type, sequence (P01116 other isoform, or with tags, fused parts or gaps): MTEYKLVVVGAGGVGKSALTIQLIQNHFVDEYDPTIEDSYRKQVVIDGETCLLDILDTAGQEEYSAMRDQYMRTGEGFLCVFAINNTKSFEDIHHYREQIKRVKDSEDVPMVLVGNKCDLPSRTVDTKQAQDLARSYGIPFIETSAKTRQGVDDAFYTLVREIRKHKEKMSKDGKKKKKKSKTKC
HRAS Wild Type, sequence (P01112 2-184): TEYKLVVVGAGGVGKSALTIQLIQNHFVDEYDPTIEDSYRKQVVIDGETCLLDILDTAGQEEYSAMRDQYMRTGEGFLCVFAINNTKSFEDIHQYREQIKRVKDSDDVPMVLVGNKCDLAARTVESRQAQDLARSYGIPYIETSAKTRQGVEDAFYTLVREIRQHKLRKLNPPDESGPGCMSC
KRAS G12V, sequence (P01116 other isoform, or with tags, fused parts or gaps G12V): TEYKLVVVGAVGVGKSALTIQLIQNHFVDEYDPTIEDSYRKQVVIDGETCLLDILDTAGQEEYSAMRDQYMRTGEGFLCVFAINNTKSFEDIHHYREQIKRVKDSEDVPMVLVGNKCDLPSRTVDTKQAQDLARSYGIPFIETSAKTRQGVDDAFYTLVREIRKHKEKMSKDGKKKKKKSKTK
KRAS G12D, sequence (P01116 other isoform, or with tags, fused parts or gaps G12D): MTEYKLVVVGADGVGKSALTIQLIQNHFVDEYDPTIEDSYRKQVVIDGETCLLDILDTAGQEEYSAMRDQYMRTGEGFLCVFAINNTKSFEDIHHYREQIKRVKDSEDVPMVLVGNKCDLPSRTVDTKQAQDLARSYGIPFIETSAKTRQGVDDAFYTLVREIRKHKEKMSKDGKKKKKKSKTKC

As for `C=C1CN2CCC[C@@]2(COc2nc3c4c(nc(-c5c(C6CC6)c(Cl)cc6[nH]ncc56)c(F)c4n2)OC[C@@H]2CC[C@H](O)CN32)C1` [Example 23, (8aS,11S)-5-(6-chloro-5-cyclopropyl-1H-indazol-4-yl)-4-fluoro-2-{[(7aS)-2-methylidenetetrahydro-1H-pyrrolizin-7a(5H)-yl]methoxy}-8,8a,9,10,11,12-hexahydro-7-oxa-1,3,6,12a-tetraazabenzo[4,5]cyclohepta[1,2,3-de]naphthalen-11-ol], the IC50 in assay [1] came out at 102 nM; in assay [2], 156 nM; in [3], 3 nM. The Kd was 3 nM on KRAS G12C; over 10000 nM on NRAS Wild Type; over 10000 nM on HRAS Wild Type; 2 nM on KRAS G12V; 3 nM at KRAS G12D; 3 nM on KRAS Wild Type.

`C=C1CN2CCC[C@@]2(COc2nc3c4c(nc(-c5c6c(cc7[nH]ncc57)CCC[C@H]6C)c(F)c4n2)OC[C@@H]2COCCCN32)C1` [Example 29, (8aS)-4-fluoro-2-{[(7aS)-2-methylidenetetrahydro-1H-pyrrolizin-7a(5H)-yl]methoxy}-5-[(5R)-5-methyl-5,6,7,8-tetrahydro-1H-benzo[f]indazol-4-yl]-8a,9,12,13-tetrahydro-8H,11H-7,10-dioxa-1,3,6,13a-tetraazanaphtho[1,8-ab]heptalene]: the IC50 is 4 nM in assay [1], 8 nM in [2] and under 1 nM in assay [3]. The Kd was 1 nM on KRAS G12C; over 10000 nM on NRAS Wild Type; over 10000 nM on HRAS Wild Type; 2 nM on KRAS G12V; 1 nM on KRAS G12D; 1 nM on KRAS Wild Type.

`COC/C=C1\CN2CCC[C@@]2(COc2nc3c4c(nc(-c5c6c(cc7[nH]ncc57)CCC[C@H]6C)c(F)c4n2)OC[C@@H]2COCCCN32)C1` [Example 37, (8aS)-4-fluoro-2-{[(2Z,7aS)-2-(2-methoxyethylidene)tetrahydro-1H-pyrrolizin-7a(5H)-yl]methoxy}-5-[(5R)-5-methyl-5,6,7,8-tetrahydro-1H-benzo[f]indazol-4-yl]-8a,9,12,13-tetrahydro-8H,11H-7,10-dioxa-1,3,6,13a-tetraazanaphtho[1,8-ab]heptalene]: the half-inhibitory concentration (IC50) in [1] is 9 nM; in [2], 25 nM; in assay [3], 4 nM. Further, the dissociation constant (Kd) was 3 nM at KRAS G12C; over 10000 nM at NRAS Wild Type; over 10000 nM at HRAS Wild Type; 4 nM at KRAS G12V; 2 nM at KRAS G12D; 3 nM on KRAS Wild Type.

For the molecule `COC/C=C1\CN2CCC[C@@]2(COc2nc3c4c(nc(-c5c(C6CC6)c(Cl)cc6[nH]ncc56)c(F)c4n2)OC[C@@H]2COCCCN32)C1` [Example 28, (8aS)-5-(6-chloro-5-cyclopropyl-1H-indazol-4-yl)-4-fluoro-2-{[(2Z,7aS)-2-(2-methoxyethylidene)tetrahydro-1H-pyrrolizin-7a(5H)-yl]methoxy}-8a,9,12,13-tetrahydro-8H,11H-7,10-dioxa-1,3,6,13a-tetraazanaphtho[1,8-ab]heptalene], the IC50 in assay [1] was 19 nM; in assay [2], 26 nM; in [3] it was 4 nM. The dissociation constant (Kd) on KRAS G12C is 2 nM; at NRAS Wild Type, over 10000 nM; at HRAS Wild Type it was over 10000 nM; at KRAS G12V, 2 nM; on KRAS G12D it was 1 nM; on KRAS Wild Type, 3 nM.

`C=C1CN2CCC[C@@]2(COc2nc3c4c(nc(-c5c(C6CC6)ccc6[nH]ncc56)c(F)c4n2)OC[C@@H]2COCCCN32)C1` [Example 20, (8aS)-5-(5-cyclopropyl-1H-indazol-4-yl)-4-fluoro-2-{[(7aS)-2-methylidenetetrahydro-1H-pyrrolizin-7a(5H)-yl]methoxy}-8a,9,12,13-tetrahydro-8H,11H-7,10-dioxa-1,3,6,13a-tetraazanaphtho[1,8-ab]heptalene]: the half-inhibitory concentration (IC50) in assay [1] stood at 275 nM; in assay [2], 400 nM; in assay [3] it was 17 nM. Besides, the Kd on KRAS G12C is 31 nM; at NRAS Wild Type, over 10000 nM; on HRAS Wild Type, over 10000 nM; on KRAS G12V, 50 nM; on KRAS G12D, 51 nM; at KRAS Wild Type it was 91 nM.

With `C/C=C1\CN2CCC[C@@]2(COc2nc3c4c(nc(-c5c6c(cc7[nH]ncc57)CCC[C@H]6C)c(F)c4n2)OC[C@@H]2COCCCN32)C1` [Example 53, (8aS)-2-{[(2Z,7aS)-2-ethylidenetetrahydro-1H-pyrrolizin-7a(5H)-yl]methoxy}-4-fluoro-5-[(5R)-5-methyl-5,6,7,8-tetrahydro-1H-benzo[f]indazol-4-yl]-8a,9,12,13-tetrahydro-8H,11H-7,10-dioxa-1,3,6,13a-tetraazanaphtho[1,8-ab]heptalene], the half-maximal inhibitory concentration (IC50) in assay [1] was 8 nM; in assay [2], 4 nM; in assay [3] it was 5 nM. Besides, the equilibrium dissociation constant (Kd) was 1 nM at KRAS G12C; over 10000 nM at NRAS Wild Type; over 10000 nM on HRAS Wild Type; 2 nM on KRAS G12V; 1 nM on KRAS G12D; 1 nM on KRAS Wild Type.

For `C[C@@H]1CCCc2cc3[nH]ncc3c(-c3nc4c5c(nc(OC[C@@]67CCCN6C/C(=C/F)C7)nc5c3F)N3CCCOC[C@H]3CO4)c21` [Example 55, (8aS)-4-fluoro-2-{[(2E,7aS)-2-(fluoromethylidene)tetrahydro-1H-pyrrolizin-7a(5H)-yl]methoxy}-5-[(5R)-5-methyl-5,6,7,8-tetrahydro-1H-benzo[f]indazol-4-yl]-8a,9,12,13-tetrahydro-8H,11H-7,10-dioxa-1,3,6,13a-tetraazanaphtho[1,8-ab]heptalene], the IC50 in assay [1] is 24 nM; in assay [2] it was 6 nM; in [3], 13 nM. For the same molecule, the equilibrium dissociation constant (Kd) is 1 nM on KRAS G12C; over 10000 nM at NRAS Wild Type; over 10000 nM on HRAS Wild Type; 2 nM at KRAS G12V; 2 nM at KRAS G12D; 3 nM on KRAS Wild Type.

As to `F/C=C1\CN2CCC[C@@]2(COc2nc3c4c(nc(-c5c(C6CC6)c(Cl)cc6[nH]ncc56)c(F)c4n2)OC[C@@H]2COCCCN32)C1` [Example 16, (8aS)-5-(6-chloro-5-cyclopropyl-1H-indazol-4-yl)-4-fluoro-2-{[(2Z,7aS)-2-(fluoromethylidene)tetrahydro-1H-pyrrolizin-7a(5H)-yl]methoxy}-8a,9,12,13-tetrahydro-8H,11H-7,10-dioxa-1,3,6,13a-tetraazanaphtho[1,8-ab]heptalene], the IC50 in [1] was determined as 22 nM; in [2] it was 23 nM; in assay [3], 2 nM. Besides, the Kd on KRAS G12C is 4 nM; at NRAS Wild Type it was over 10000 nM; on HRAS Wild Type, over 10000 nM; at KRAS G12V, 4 nM; at KRAS G12D, 3 nM; on KRAS Wild Type, 4 nM.

With `Fc1c(-c2c(C3CC3)c(Cl)cc3[nH]ncc23)nc2c3c(nc(OC[C@@]45CCCN4CC(=C4COC4)C5)nc13)N1CCCOC[C@H]1CO2` [Example 41, (8aS)-5-(6-chloro-5-cyclopropyl-1H-indazol-4-yl)-4-fluoro-2-{[(7aS)-2-(oxetan-3-ylidene)tetrahydro-1H-pyrrolizin-7a(5H)-yl]methoxy}-8a,9,12,13-tetrahydro-8H,11H-7,10-dioxa-1,3,6,13a-tetraazanaphtho[1,8-ab]heptalene], the 50% inhibitory concentration (IC50) worked out at 25 nM in [1], 36 nM in assay [2] and 5 nM in assay [3]. The Kd at KRAS G12C is 4 nM; on NRAS Wild Type it was over 10000 nM; at HRAS Wild Type, over 10000 nM; at KRAS G12V, 4 nM; on KRAS G12D it was 2 nM; on KRAS Wild Type it was 5 nM.

`C=C1CN2CCC[C@@]2(COc2nc3c4c(nc(-c5c(C6CC6)c(Cl)cc6[nH]ncc56)c(F)c4n2)OC[C@@H]2CCCCN32)C1` [Example 21, (8aS)-5-(6-chloro-5-cyclopropyl-1H-indazol-4-yl)-4-fluoro-2-{[(7aS)-2-methylidenetetrahydro-1H-pyrrolizin-7a(5H)-yl]methoxy}-8,8a,9,10,11,12-hexahydro-7-oxa-1,3,6,12a-tetraazabenzo[4,5]cyclohepta[1,2,3-de]naphthalene]: the 50% inhibitory concentration (IC50) in assay [1] came out at 381 nM; in assay [2], 268 nM; in assay [3] it was 8 nM. Also, the equilibrium dissociation constant (Kd) on KRAS G12C is 14 nM; at NRAS Wild Type, over 10000 nM; at HRAS Wild Type it was over 10000 nM; on KRAS G12V, 15 nM; at KRAS G12D it was 21 nM; on KRAS Wild Type, 31 nM.
